Laboratory results as given in ChEMBL document CHEMBL5465560, “Selectivity Literature for EUbOPEN Chemogenomic Library” (2024).
Blank lines part the entries; values can stand above or below the molecule they belong to.

Legend:
[1] = molecular target: Ribosomal protein S6 kinase alpha-4 (Homo sapiens) (UniProt O75676); settings: at 10 µM
[2] = molecular target: Protein kinase C eta type (Homo sapiens) (UniProt P24723); assay: Selectivity interaction (Ambit KINOMEscan and KiNATiv profiling in Jurkat cells) EUB0000090b PRKCH; assay type: cell-based; settings: at 1 µM
[3] = molecular target: T1, MAP/microtubule affinity-regulating kinase 4 (Homo sapiens) (UniProt Q96L34); assay: Selectivity interaction (KinomeScan (DiscoverX)) EUB0000655a MARK4; settings: at 10 µM
T1 sequence (whole entry): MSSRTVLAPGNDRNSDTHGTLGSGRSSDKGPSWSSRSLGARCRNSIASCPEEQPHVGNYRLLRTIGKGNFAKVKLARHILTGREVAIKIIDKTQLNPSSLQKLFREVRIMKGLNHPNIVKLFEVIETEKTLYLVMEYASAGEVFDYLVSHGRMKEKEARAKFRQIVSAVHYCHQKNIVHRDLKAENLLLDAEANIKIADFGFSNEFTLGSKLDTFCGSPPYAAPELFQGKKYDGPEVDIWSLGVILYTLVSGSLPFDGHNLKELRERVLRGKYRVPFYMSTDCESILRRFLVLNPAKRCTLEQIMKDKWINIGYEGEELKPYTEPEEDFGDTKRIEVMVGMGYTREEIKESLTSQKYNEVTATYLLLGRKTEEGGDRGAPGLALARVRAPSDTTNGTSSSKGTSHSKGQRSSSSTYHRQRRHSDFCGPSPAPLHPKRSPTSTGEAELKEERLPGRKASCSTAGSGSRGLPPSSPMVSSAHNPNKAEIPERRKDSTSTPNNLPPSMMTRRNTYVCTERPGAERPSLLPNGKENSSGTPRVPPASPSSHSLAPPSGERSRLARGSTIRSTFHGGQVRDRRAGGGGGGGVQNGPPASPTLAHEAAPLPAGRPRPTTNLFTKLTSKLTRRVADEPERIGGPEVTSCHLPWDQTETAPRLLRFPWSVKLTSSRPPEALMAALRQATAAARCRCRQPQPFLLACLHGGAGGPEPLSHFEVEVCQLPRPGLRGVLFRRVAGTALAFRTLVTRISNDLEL

[4] = molecular target: RAC-beta serine/threonine-protein kinase (Homo sapiens) (UniProt P31751); assay: Selectivity interaction (KinomeScan (DiscoverX)) EUB0001079a AKT2; settings: at 1 µM
[5] = molecular target: T2, Tyrosine-protein kinase ITK/TSK (Homo sapiens) (UniProt Q08881); assay: Selectivity interaction (KinomeScan (DiscoverX)) EUB0000607a ITK; settings: at 10 µM
T2 sequence (whole entry): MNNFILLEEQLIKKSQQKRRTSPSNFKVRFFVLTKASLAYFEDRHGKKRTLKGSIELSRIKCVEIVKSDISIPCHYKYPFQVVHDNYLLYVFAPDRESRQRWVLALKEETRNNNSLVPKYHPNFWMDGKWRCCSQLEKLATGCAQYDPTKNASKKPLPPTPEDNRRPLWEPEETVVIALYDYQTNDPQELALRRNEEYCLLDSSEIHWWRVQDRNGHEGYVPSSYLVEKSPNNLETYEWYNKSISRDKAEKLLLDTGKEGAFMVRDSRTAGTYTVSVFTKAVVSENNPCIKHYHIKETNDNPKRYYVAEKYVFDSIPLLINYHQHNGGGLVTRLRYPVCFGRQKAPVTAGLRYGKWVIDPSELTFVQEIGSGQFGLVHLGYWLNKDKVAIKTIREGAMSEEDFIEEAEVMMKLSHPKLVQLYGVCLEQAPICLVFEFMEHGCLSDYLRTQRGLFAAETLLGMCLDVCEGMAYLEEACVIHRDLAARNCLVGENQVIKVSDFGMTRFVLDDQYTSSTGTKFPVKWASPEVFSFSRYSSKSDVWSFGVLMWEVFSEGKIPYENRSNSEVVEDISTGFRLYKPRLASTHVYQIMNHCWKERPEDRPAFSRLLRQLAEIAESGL

[6] = molecular target: Dual specificity testis-specific protein kinase 1 (Homo sapiens) (UniProt Q15569); assay: Selectivity interaction (KinomeScan (DiscoverX)) EUB0001619a TESK1; settings: at 1 µM
[7] = molecular target: T3, Discoidin domain-containing receptor 2 (Homo sapiens) (UniProt Q16832); settings: at 10 µM
T3 sequence (whole entry): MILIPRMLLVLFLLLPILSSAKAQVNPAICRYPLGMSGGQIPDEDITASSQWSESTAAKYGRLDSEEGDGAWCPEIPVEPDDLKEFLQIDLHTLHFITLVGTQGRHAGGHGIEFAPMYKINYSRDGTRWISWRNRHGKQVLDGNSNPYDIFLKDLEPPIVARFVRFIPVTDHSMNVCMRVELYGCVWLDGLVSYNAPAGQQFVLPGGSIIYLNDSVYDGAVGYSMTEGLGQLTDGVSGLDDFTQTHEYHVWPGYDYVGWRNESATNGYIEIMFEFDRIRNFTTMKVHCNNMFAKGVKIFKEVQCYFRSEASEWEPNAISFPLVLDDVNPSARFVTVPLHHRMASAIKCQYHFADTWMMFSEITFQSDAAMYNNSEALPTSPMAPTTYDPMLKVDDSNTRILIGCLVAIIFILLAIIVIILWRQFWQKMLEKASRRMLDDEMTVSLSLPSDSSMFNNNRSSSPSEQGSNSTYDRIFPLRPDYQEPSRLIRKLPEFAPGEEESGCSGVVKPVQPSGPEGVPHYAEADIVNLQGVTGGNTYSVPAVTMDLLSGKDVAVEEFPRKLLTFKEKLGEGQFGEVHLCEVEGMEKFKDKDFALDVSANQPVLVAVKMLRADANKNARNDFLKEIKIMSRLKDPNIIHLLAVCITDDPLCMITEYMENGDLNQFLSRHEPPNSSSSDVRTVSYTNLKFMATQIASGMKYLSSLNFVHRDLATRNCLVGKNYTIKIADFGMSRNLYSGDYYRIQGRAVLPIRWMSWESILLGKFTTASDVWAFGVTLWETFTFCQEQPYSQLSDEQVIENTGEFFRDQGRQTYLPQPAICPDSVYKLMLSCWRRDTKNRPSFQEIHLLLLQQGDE

[8] = molecular target: DNA (cytosine-5)-methyltransferase 1 (Homo sapiens) (UniProt P26358); settings: at 1 µM
[9] = molecular target: Mitogen-activated protein kinase 1 (Homo sapiens, UniProt P28482); assay: Selectivity interaction (Kinase panel (KiNativ target engagement assay in Jurkat cells)) EUB0001635a MAPK1; assay type: cell-based; settings: Selectivity number of off-targets 0.0, Selectivity number of targets 233.0, Source Knowledge https://www.sciencedirect.com/science/article/pii/S2451945619300674?via%3Dihub, at 1 µM
[10] = molecular target: Tyrosine-protein kinase Fes/Fps (Homo sapiens) (UniProt P07332); assay: Selectivity interaction (KinomeScan (DiscoverX)) EUB0000666a FES; settings: at 10 µM
[11] = molecular target: Cyclin-dependent kinase 18 (Homo sapiens) (UniProt Q07002); assay: Selectivity interaction (KinomeScan (DiscoverX)) EUB0000666a CDK18; settings: at 10 µM
[12] = molecular target: Tyrosine-protein kinase Fer (Homo sapiens) (UniProt P16591); assay: Selectivity interaction (Kinase panel (Z-LYTE Assay)) EUB0001632a FER; settings: at 10 µM
Sequence of Tyrosine-protein kinase Fer (Homo sapiens) (P16591 whole entry, looked up): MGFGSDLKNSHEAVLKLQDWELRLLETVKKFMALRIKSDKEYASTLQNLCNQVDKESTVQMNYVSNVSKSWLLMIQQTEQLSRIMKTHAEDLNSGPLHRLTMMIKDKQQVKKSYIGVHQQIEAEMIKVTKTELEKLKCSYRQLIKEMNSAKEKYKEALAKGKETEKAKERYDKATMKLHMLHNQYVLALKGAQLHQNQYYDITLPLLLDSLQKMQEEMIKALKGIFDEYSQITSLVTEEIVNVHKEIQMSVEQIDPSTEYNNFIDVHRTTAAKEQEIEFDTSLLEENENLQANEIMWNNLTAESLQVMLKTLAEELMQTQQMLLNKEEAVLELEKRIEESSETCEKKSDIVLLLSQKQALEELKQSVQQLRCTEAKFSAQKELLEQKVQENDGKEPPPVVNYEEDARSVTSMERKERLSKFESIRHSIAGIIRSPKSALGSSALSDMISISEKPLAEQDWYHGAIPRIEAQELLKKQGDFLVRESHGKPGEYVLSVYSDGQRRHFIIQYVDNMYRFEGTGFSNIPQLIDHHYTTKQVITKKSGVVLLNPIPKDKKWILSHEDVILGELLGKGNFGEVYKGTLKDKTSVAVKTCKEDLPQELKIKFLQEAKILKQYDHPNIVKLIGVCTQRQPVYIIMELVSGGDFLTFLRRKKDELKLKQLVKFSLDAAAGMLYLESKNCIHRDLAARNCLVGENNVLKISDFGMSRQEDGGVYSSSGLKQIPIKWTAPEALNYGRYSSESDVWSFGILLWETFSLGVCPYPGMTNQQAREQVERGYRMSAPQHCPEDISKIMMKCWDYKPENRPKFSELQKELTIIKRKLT

Sequence of Ribosomal protein S6 kinase alpha-4 (Homo sapiens) (O75676 whole entry, looked up): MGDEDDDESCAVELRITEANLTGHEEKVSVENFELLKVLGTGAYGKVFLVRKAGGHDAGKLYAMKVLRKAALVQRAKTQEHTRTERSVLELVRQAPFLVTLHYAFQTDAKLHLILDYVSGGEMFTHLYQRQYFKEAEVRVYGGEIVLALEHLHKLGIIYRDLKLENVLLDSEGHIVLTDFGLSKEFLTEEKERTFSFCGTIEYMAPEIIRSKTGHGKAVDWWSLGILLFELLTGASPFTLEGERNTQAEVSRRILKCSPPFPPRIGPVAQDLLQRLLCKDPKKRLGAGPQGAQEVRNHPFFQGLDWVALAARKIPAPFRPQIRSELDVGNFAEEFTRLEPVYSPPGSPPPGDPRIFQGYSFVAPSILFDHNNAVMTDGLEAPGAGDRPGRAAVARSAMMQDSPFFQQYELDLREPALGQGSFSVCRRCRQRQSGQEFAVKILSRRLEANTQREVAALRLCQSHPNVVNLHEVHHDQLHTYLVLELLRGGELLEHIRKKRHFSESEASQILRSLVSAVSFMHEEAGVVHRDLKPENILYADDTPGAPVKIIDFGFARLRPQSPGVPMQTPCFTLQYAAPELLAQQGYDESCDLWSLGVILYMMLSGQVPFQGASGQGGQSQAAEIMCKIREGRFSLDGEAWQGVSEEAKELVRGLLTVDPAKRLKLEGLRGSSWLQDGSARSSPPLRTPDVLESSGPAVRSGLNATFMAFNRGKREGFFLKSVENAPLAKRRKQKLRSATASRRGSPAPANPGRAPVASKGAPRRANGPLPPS
Sequence of Protein kinase C eta type (Homo sapiens) (P24723 whole entry): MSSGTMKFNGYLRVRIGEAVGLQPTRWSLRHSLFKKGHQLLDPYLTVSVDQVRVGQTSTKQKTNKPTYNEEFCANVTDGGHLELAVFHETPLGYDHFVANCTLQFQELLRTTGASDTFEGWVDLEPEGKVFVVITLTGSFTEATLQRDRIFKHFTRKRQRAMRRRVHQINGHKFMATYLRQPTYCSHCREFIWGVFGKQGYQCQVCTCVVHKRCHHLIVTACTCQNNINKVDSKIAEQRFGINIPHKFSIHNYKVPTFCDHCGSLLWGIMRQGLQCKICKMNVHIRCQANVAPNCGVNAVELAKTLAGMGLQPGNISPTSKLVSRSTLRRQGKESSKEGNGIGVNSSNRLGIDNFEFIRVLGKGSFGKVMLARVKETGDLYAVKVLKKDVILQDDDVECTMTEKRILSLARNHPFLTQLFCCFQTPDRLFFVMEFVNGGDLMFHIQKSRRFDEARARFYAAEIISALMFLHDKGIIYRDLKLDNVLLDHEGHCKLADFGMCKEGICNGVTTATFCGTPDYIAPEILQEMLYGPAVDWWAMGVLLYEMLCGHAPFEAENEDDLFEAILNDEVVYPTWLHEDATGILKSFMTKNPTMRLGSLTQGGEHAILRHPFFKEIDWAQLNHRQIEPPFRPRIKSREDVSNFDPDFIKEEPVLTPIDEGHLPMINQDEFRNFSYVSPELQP
Sequence of DNA (cytosine-5)-methyltransferase 1 (Homo sapiens) (P26358 whole entry): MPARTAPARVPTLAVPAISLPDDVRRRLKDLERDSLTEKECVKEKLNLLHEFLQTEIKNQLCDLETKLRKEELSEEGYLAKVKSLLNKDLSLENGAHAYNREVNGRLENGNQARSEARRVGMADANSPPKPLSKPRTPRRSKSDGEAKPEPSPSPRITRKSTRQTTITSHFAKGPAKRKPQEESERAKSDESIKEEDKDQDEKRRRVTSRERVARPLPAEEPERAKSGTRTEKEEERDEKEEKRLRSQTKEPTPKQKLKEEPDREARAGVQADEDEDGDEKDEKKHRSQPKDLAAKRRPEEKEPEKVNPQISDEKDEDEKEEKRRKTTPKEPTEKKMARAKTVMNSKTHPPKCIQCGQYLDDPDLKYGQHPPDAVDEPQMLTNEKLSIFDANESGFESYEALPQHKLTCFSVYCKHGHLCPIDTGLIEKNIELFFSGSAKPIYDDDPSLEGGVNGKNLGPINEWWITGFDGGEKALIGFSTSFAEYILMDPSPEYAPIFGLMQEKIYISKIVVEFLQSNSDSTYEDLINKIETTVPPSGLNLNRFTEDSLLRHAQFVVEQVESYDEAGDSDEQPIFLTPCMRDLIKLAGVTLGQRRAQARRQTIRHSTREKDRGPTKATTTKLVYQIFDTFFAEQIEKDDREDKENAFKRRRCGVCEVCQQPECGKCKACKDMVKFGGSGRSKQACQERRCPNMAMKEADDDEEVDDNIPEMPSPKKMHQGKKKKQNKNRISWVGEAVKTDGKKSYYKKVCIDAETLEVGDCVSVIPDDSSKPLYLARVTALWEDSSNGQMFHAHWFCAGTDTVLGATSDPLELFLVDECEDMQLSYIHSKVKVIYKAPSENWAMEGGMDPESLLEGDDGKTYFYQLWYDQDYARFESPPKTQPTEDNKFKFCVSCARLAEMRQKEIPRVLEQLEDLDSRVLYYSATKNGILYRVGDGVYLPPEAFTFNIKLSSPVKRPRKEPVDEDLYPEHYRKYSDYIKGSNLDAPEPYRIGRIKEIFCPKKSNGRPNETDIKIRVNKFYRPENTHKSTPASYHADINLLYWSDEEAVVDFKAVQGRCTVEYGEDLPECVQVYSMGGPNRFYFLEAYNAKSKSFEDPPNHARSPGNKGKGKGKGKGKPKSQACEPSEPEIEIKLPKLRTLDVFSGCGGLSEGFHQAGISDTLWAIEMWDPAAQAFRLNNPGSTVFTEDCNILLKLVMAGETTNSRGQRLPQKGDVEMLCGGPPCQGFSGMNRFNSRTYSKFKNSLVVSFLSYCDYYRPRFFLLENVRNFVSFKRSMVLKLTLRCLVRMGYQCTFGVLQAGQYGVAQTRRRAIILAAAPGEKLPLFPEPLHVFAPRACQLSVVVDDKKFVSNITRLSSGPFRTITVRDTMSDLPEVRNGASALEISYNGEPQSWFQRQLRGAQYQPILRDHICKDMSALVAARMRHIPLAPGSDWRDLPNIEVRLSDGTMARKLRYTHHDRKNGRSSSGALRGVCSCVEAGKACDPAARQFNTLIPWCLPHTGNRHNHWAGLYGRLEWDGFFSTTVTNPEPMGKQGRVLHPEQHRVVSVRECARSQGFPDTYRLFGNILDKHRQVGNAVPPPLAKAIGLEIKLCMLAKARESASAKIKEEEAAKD
Sequence of Cyclin-dependent kinase 18 (Homo sapiens) (Q07002 whole entry): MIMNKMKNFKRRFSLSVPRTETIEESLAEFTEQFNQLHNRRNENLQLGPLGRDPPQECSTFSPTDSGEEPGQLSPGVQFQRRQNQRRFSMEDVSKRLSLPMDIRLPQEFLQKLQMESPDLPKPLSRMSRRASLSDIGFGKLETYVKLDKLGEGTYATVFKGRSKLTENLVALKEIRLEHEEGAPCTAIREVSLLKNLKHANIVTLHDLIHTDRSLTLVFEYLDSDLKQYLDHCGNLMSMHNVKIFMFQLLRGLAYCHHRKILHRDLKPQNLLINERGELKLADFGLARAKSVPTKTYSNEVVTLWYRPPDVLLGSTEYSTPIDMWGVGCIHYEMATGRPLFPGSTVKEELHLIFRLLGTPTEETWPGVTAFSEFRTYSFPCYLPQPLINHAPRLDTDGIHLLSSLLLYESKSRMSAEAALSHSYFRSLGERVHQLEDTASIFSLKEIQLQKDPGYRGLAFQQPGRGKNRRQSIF
Sequence of Dual specificity testis-specific protein kinase 1 (Homo sapiens) (Q15569 whole entry, looked up, the tested form may be a part): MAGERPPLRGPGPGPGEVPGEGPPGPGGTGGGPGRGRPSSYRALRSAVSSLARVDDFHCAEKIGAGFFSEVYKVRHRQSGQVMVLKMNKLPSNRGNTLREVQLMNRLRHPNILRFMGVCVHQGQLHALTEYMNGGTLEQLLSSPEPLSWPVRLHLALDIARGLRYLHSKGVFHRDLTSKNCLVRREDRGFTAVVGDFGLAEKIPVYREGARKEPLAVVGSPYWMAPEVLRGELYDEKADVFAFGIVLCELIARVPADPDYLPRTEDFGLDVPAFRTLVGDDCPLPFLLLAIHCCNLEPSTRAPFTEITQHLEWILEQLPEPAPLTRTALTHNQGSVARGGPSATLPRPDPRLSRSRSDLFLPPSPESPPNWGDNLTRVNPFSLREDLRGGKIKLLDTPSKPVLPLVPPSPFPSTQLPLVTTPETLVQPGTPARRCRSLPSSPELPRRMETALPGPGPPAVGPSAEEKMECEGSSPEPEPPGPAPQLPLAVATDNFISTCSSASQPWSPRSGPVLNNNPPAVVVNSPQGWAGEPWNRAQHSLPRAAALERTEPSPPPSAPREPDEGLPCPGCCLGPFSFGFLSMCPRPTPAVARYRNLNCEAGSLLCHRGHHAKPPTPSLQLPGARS

% of control [1]: 100%
Compound: CCN(CC)CCCCNc1ncc2cc(-c3cc(OC)cc(OC)c3)c(NC(=O)NC(C)(C)C)nc2n1

Compound: CN(C)C/C=C/C(=O)Nc1ccc(C(=O)N2CCCC(Nc3ncc(Cl)c(-c4c[nH]c5ccccc45)n3)C2)cc1 (configuration not stated)
% of control [2]: 91%

Compound: CN(C)CCOc1ccc(-c2nc(-c3ccncc3)c(-c3ccc4c(c3)CC/C4=N\O)[nH]2)cc1
% of control [3]: 100%

Compound: Nc1cnc(N2CCc3cc(S(=O)(=O)Nc4c(F)cc(Cl)cc4F)cc(N4CCCC4=O)c32)nc1 [TP-020n]
% of control [4]: 100%

Compound: CNC(=O)Nc1ccc(-c2nc(N3CC4CCC(C3)O4)c3cnn(C4CCC5(CC4)OCCO5)c3n2)cc1
% of control [5]: 88%

Compound: N#Cc1cccc(-c2c[nH]c3ncnc(N4CCOCC4)c23)c1
% of control [6]: 100%

Compound: COCC(=O)NC/C=C/c1ccc2ncnc(Nc3ccc(Oc4ccc(C)nc4)c(C)c3)c2c1 [CP-724714]
% of control [7]: 100%

% activity [8]: > 85%
Compound: CNCCN1CCC(c2cc(CN(C)C(=O)c3cccc(Oc4ccccc4)c3)ccn2)CC1

Compound: C=CC(=O)Nc1ccc(C(=O)Nc2[nH]nc3c2CN(C(=O)N[C@H](CN(C)C)c2ccccc2)C3(C)C)cc1
% of engagement [9]: 0.4%

Compound: O=C(NOC[C@H](O)CO)c1ccc(F)c(F)c1Nc1ccc(I)cc1F
% of control [10]: 100%
% of control [11]: 100%

% of control [12]: 3.17%
Compound: Cn1cc(-n2cnc3c(NCc4nc5cc(Cl)c(Cl)cc5[nH]4)nc(N4CCOCC4)nc32)cn1
